Test results: US20220072013A1, “Pharmaceutical Combinations for the Treatment of Cancer” (CA*TX, Inc., priority 2018, published 2022)
“Also recorded” adds a separate entry of the source.

Assays:
[1] = test system: global DNA methylation of adenomas in Apc^Min/+ mice; test: Anti-5-methylcytidine immunostaining of small intestine adenomas (global DNA methylation); type: in vivo
[2] = test system: intestinal tumors in Apc^Min/+ mice; test: Intestinal tumor development in Apc^Min/+ mice given drug-containing diets; type: in vivo; conditions: for decrease in tumor number: analyzed at 12 weeks; for change in tumor size: started before adenoma development (age 4 to 12 weeks)
Experimental: FIG. 1 illustrates the decrease in the number of intestinal tumors in Apc^Min/+ mice given Budesonide- or Sulindac-containing diets for 8 or 4 weeks (from age 4 weeks to age 12 weeks or age 8 weeks to age 12 weeks); bars show % change in tumor number compared to untreated C57BL/6 control mice.
FIG. 2 illustrates the change in size of intestinal tumors in Apc^Min/+ mice that were administered Budesonide- or Sulindac containing diets for 8 or 4 weeks (from age 4 weeks to age 12 weeks or age 8 weeks to age 12 weeks); bars show % change in tumor size compared to untreated C57BL/6 control mice.
Budesonide, a steroidal anti-inflammatory drug active against lung cancer development, was investigated as a drug for CRC. Budesonide was evaluated using the murine model for hereditary CRC (FAP) in humans—Apc^Min/+ mice—which, like FAP patients, carry a germline Apc mutation and which spontaneously develop multiple intestinal tumors. The effects of Budesonide were compared to Sulindac as the “gold standard” for an NSAID drug known to inhibit tumor development in Apc^Min mice. The Apc^Min/+ and control mice (C57BL6) were given Budesonide- or Sulindac-containing diets starting at 4 or 8 weeks of age (corresponding, respectively, to ages before and after intestinal tumor development). At 12 weeks, mice were sacrificed and intestines analyzed for adenomas. […] Without wishing to be bound by any particular theory, it is concluded that Budesonide has strong activity against the development of multiple tumors that would otherwise be induced by a variety of Apc mutations (combinations of inherited 1st hit and acquired 2nd hits), and also regression of many tumors after they had already developed.

[3] = test system: HT29 (APC mutant) cells; test: DNA methylation (epigenetic) profiling of HT29 cells; type: cell-based, human
Experimental: FIG. 5 illustrates that Budesonide increases DNA methylation in human CRC cells. To determine if Budesonide increases DNA methylation in human CRC cells, epigenetic profiling was done on HT29 (APC mutant) cells in response to Budesonide exposure. […] A statistically significant shift in CpG methylation occurred at 235 unique CpG sites (out of 1.9 M that were analyzed).

[4] = test system: survivin; test: Survivin mRNA and protein expression in HT-29 cells (RT-PCR, western blot); type: cell-based, human; conditions: Sulindac 200 μM
Experimental: RNA and protein expression were measured by RT-PCR and western blot, respectively. FIGS. 3A and 3B show an ethidium bromide-stained gel and graph of quantified data for survivin and Bcl-2 mRNA expression. FIGS. 3C and 3D show a western blot and graph of quantified data for survivin and Bcl-2 protein expression.
Another mechanism attributed to Sulindac's antitumor effects is its ability to induce apoptosis and decrease cell proliferation. This mechanism appears to involve a COX-independent mechanism whereby Sulindac (and other NSAIDs) induce degradation of beta-catenin, inactivation of Tcf-4, reduced expression of an anti-apoptotic protein (survivin; FIG. 3) and increased apoptosis in human CRC cells. […] To that end, survivin and Bcl-2 expression was evaluated in HT-29 cells that were treated with Sulindac (200 μM). RNA and protein expression were measured by RT-PCR and western blot, respectively. FIGS. 3A and 3B show an ethidium bromide-stained gel and graph of quantified data for survivin and Bcl-2 mRNA expression.

[5] = test system: HT29 CRC cells; test: Apoptosis in HT29 CRC cells; type: cell-based, human
[6] = diet started at 4 weeks of age, prior to establishment of intestinal adenomas
[7] = diet started at 8 weeks of age, after adenoma development

SMILES | 5-methylcytidine immunostaining signal intensity, increase [1] [fold] | proportion of cells staining positive for 5-methylcytidine [1] | decrease in tumor number [2, 6] [%] | decrease in tumor number [2, 7] [%] | change in tumor size [2] | 1 MB domains across the genome showing an increase in methylation versus control ([3]; Budesonide exposure) [%] | unique CpG sites with statistically significant shift in CpG methylation ([3]; out of 1.9 M sites analyzed) | survivin expression [4] | apoptosis [5]
CCCC1O[C@@H]2C[C@H]3[C@@H]4CCC5=CC(=O)C=C[C@]5(C)[C@H]4[C@@H](O)C[C@]3(C)[C@]2(C(=O)CO)O1 (stereo partly drawn) [Budesonide, budesonide] | 1.9 | increase | 88 | 60 | decreased | 69.3 | 235 | – | –
CC1=C(CC(=O)O)c2cc(F)ccc2/C1=C\c1ccc([S+](C)[O-])cc1 (stereo not drawn) [Sulindac] | – | – | 90 | 90 | decreased | – | – | monotonic decrease; also recorded: attenuates expression | induces apoptosis
